Laboratory results taken from PMC7192623, “Regulation of the RNA and DNA nuclease activities required for Pyrococcus furiosus Type III-B CRISPR–Cas immunity” (Nucleic Acids Research, 2020).

Legend:
Pfu Csx1 [1] = target: T1, Pfu Csx1 (Pyrococcus furiosus, UniProt Q8U1S8); assay: cleavage of radiolabelled Cmr-produced native cOA, sequencing gel; type: biochemical; details: HEPN active site; labelled compound; native cOA preparation (mainly cA4, also cA3), product presumed A2>p; 70 °C
T1 construct: gene PF1127; full-length, N-terminal 6x-His tag, modified pET24-D, expressed in E. coli BL21-RIPL (DE3)
T1 sequence (Q8U1S8 1-478): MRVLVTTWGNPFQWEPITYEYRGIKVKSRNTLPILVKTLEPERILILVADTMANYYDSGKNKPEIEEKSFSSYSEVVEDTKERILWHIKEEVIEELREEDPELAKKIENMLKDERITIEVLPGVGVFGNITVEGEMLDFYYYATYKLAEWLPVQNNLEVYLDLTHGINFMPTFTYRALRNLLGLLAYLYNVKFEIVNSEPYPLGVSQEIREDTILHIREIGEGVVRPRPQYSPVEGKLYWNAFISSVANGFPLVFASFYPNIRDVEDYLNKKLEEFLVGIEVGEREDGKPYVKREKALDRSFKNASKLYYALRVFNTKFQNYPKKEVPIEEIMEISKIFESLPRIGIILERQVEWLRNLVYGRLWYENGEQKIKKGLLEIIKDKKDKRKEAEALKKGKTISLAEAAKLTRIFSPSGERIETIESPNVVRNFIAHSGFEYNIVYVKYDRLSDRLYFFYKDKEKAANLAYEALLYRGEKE

Pfu Csx1 [2] = target: T1, Pfu Csx1; assay: RNase activation assay, […]'-32P-labelled target RNA, urea-PAGE; type: biochemical; details: allosteric activator via CARF domain; synthetic cA4 at 1.85, 18.5 and 185 pM; 20 nM Csx1; 20 mM Tris-HCl pH 7.5, 200 mM NaCl, 70 °C

Nc1ncnc2c1ncn2[C@@H]1O[C@@H]2COP(=O)(O)O[C@H]3[C@@H](O)[C@H](n4cnc5c(N)ncnc54)O[C@@H]3COP(=O)(O)O[C@H]3[C@@H](O)[C@H](n4cnc5c(N)ncnc54)O[C@@H]3COP(=O)(O)O[C@H]3[C@@H](O)[C@H](n4cnc5c(N)ncnc54)O[C@@H]3COP(=O)(O)O[C@H]2[C@H]1O [cA4]
cleavage of radiolabelled Cmr-produced native cOA, sequencing gel (Pfu Csx1 [1]): also degrades its cognate cyclic-tetra-AMP (cA4) activator to switch off the signaling pathway | RNase activation assay, 5'-32P-labelled target RNA, urea-PAGE (Pfu Csx1 [2]): cA4 but not cA6 stimulated the ribonuclease activity of Csx1
